Experimental data taken from patent publication US4221794A, “Method of imparting immunomodulating and antiviral activity” (Newport Pharmaceuticals International, Inc., priority 1979, dated 1980).
“Also recorded” adds a separate entry of the source.

Columns and labels:
spleen cells [1] = experiment: In vivo treatment of mice: effect on in vitro Con A stimulation of spleen cell proliferation; set-up: species or system male Balb/C mice
Experimental: The purpose of this study was to determine the effects of in vivo treatment of mice with the compounds NPT 15392 and 15410 on the subsequent activity of spleen cells isolated from these animals and evaluated in vitro for their proliferative response to the mitogen, Concanavalin A (Con A).
Nine male Balb/C mice, 8-9 weeks old, weighing 18-20 gms were divided into three groups. One group was treated twice daily (for 1 day), in the morning and afternoon, with an oral dose of NPT 15392 at 10 mg/kg. The second group was similarly treated with NPT 15410 at 20 mg/kg. A third group, dosed with saline served as a placebo control.
The following day, each group was sacrificed and the spleens removed and pooled. The spleens were minced and the cells washed in RPMI-1640 medium (Grand Island Biologicals) supplemental with 2 mm glutamine and antibiotics. The cell concentration of each preparation was determined by a Coulter counter and adjusted to 5×10^6 cells/ml with RPMI medium.
(§1) Microtiter assays were carried out in 0.2 ml incubations, containing 5×10^5 cells and Con A or Con A and compounds at the indicated concentrations. All assays were performed with 6 replicates and compared with a blank assay containing only cells. The assay plates were incubated at 37° in 5% CO2 for 4 days. During the final 18-20 hours of incubation, 0.5 ml of ^3 HTdR (10 μCi/ml, 6 Ci /m mole) were added to each culture. The cultures were harvested with a multiple automatic sample harvester (MASH) unit and the incorporated ^3 HTdR determined with a Beckman LS 8000 liquid scintillation counter, as a measure of cell proliferation. The results are tabulated as the ratio of the activity in the Con A or Con A and compound treated cultures to the blank cultures.

Toxicity in mice = settings: for LD50: mouse, in vivo
mouse lymphocytes = experiment: Mitogen (Con A) induced mouse lymphocyte (spleen cell) proliferation; type: cell-based; settings: for Maximum Percent Change, Mitogen Induced (Con A) Mouse Lymph. Prolif.: plus = immunostimulating, minus = immunoinhibiting, 0 = neither
Description: The following three assay procedures are used to evaluate the ability of the test substances to modulate the activity of several classes of cells in the immune system. In these systems it is possible to identify both immunopotentiating activity (evidence by an enhancement of the parameter examined) as well as immunosuppressant activity (evidenced by an inhibition of the parameter examined).
1. Mitogen-Induced Mouse Spleen Cell Assay
Mouse spleen cells contain a population of both B and T lymphocytes which can be stimulated by a number of foreign substances (e.g., plant mitogens such as Con A) to proliferate. This enhanced proliferation is an indication of enhanced cell mediated immunity. The method below describes the system used to evaluate test substances as immunopotentiators.
Concanavalin A (Calbiochem, La Jolla, California), Lot #210073, lyophilized in NaCl, was prepared first as a 1% solution and diluted as a 2×concentration for each dilution (0.5, 1.0, 2.5 μg/ml).
Six to eight week old male Balb/c and C3 H inbred mice were obtained from the following sources: Flow Research Animals, Inc., Dublin, Virginia; Charles River Breeding Laboratories, Wilmington, Massachusetts; Laboratory Supply Company, Indianapolis, Indiana; and Lionel Strong Foundation, San Diego, California.
Three to five mice were sacrificed by cervical dislocation and the spleens aseptically removed. Pooled spleens were minced and teased with sterile forceps; then strained through a double layer of nylon mesh. The cell suspension was washed once with 15 ml of RPMI 1640 supplemented with 5% fetal calf serum and antibiotics. Cells were cultured at a concentration of 10^6 cells/0.1 ml/well in micro-plates. Cultures were incubated in the presence or absence of mitogen in a humidified atmosphere containing 5% CO2 for 48 hours. The test compound was added to cultures at various concentrations concommitant with mitogen.
Proliferation was assayed by the degree of incorporation of 1.0 μCi of [^3 H] thymidine over an 18 hour incubation period. Cultures were harvested by a MASH unit (Otto Hiller Co., Madison, Wisconsin) and thymidine incorporation was assayed by liquid scintillation spectrometry. Cultures were performed in triplicate and data are expressed as means plus or minus the standard error of the experimental means. Drug stimulation indices over control values were also calculated and portrayed graphically.
Table 4 above presents the results of an evaluation of a number of these subject compounds as potentiators of the immune response. Three different test systems were used. The first involves a measure of the ability of the test compound to enhance the ability of mouse lymphocytes to proliferate in response to a plant mitogen (Con A). The second involves measuring the ability of the test compounds to enhance human lymphocyte proliferation in response to a second plant mitogen (PHA). The third system measures the ability of these test substances to enhance macrophage proliferation in response to a natural lymphokine (MMF, Macrophage Mitogenic Factor).

influenza virus = experiment: Anti-influenza activity (overall); type: cell-based, several strains of A and B sub-types; settings: for inhibit the replication of different strains of influenza virus (number of strains): concentrations ranging from 1-150 μg/ml
spleen cells [2] = experiment: In vitro treatment of Con A stimulated mouse spleen cells; type: cell-based; settings: for ability to augment Con A stimulation (in words): compound 1 μg/ml, Con A 5 μg/ml
Experimental: The following day, each group was sacrificed and the spleens removed and pooled. […] The cell concentration of each preparation was determined by a Coulter counter and adjusted to 5×10^6 cells/ml with RPMI medium.
as §1, with “proliferation.” for “proliferation. The results are tabulated as the ratio of the activity in the Con A or Con A and compound treated cultures to the blank cultures.”

[3] = Con A 5 μg/ml (suboptimal), oral 15392 10 mg/kg, 15410 20 mg/kg

Compound | response of spleen cells to Con A after in vivo treatment (in words) (spleen cells [1]; [3]) | response of spleen cells to Con A after in vivo treatment (in words) (spleen cells [1]; Con A 10 μg/ml (more optimal)) | drug related mortality (Toxicity in mice; mice, doses of 1000 mg/kg) | % Stimulation, Mitogen Induced Murine Lymphocyte Proliferation (mouse lymphocytes; 01-1.0 μg/ml) | % Stimulation, Mitogen Induced Murine Lymphocyte Proliferation (mouse lymphocytes; 1.0-10 μg/ml) | Maximum Percent Change, Mitogen Induced (Con A) Mouse Lymph. Prolif. (mouse lymphocytes; 1.0-10 (unit not given)) | % Stimulation, Mitogen Induced Murine Lymphocyte Proliferation (mouse lymphocytes; 10-100 μg/ml) | Maximum Percent Change, Mitogen Induced (Con A) Mouse Lymph. Prolif. (mouse lymphocytes; 10-100 (unit not given)) | Maximum Percent Change, Mitogen Induced (Con A) Mouse Lymph. Prolif. (mouse lymphocytes; .01-1.0 (unit not given)) | anti-influenza activity (in words) (influenza virus; compound by itself) | inhibit the replication of different strains of influenza virus (number of strains) (influenza virus) | fold induction at 1 µg/mL (spleen cells [2]; Mus musculus, 96 h, Con A 5 μg/l as printed, compound 1 μg/ml in vitro, read-out: stimulation over Con A alone) | ability to augment Con A stimulation (in words) (spleen cells [2]) | LD50 (Toxicity in mice) | LD50 (Toxicity in mice; sc) | potentiation of anti-influenza activity by DIP.PAcBA salt (influenza virus) | stimulation over Con A alone (spleen cells [2]; Con A 5 μg/l as printed, compound 1 μg/ml in vitro, 5760 min)
CCCCCC[C@H]([C@H](C)O)n1cnc2c(=O)[nH]cnc21 (relative stereo) [NPT 15392, ERYTHRO-9-(2-HYDROXY-3-NONYL)HYPOXANTHINE] | increases the subsequent response of the spleen cells | No significant differences | no drug related mortality was noted | > 50% | 30-50% | 162% | 30-50% | -72% | 172% | significant anti-influenza activity | at least 4 different strains | 2.8 | marked ability to augment the Con A stimulation |  |  |  | 
CCCCCC[C@H]([C@H](C)O)n1cnc2c(=O)[nH]cnc21 (relative stereo) [NPT 15410] | increases the subsequent response of the spleen cells | No significant differences |  | > 50% | 30-50% | 40% | 30-50% | 40% | 140% |  | at least 4 different strains |  | marked ability to augment the Con A stimulation | 4300 mg/kg | 4900 mg/kg | does not potentiate the anti-influenza activity; also recorded: equally active | 3.3 fold
